In brackets after ≈: the same amount, converted by molar mass.
Experiments:
Assay type in all cases: cell-based
[1] = test system: Methicillin Resistant S. aureus (MRSA) clinical isolates; test: expanded MIC profiling, MRSA clinical isolates; settings: Staphylococcus aureus
Description: (§1) To evaluate the activity of selected example compounds against clinical isolates of target species, standard cell-based broth microdilution MIC assays were employed. A panel of 20 clinical isolates of P. aeruginosa and 20 clinical isolates of Methicillin Resistant S. aureus (MRSA) from Lankenau Medical Center (Wynnewood, Pa.) were used. In the set of P. aeruginosa isolates, the compounds were also tested in combination with a β-lactamase inhibitor (taniborbactam), to evaluate the potential benefit of inhibiting β-lactamase enzymes. The assay was conducted in Cation Adjusted Mueller Hinton Broth (CAMHB, BD #212322, BD Diagnostic Systems, Sparks, Md.). Bacteria strains were grown for 3-5 hours in CAMHB. Compounds were added to a microtiter plate in 2-fold serial dilutions in CAMHB. For plates receiving β-lactamase inhibitor, taniborbactam was added to obtain a final fixed concentration of 4 μg/mL. Once the test articles were added, the plates were inoculated according to CLSI broth microdilution method. After inoculation, the plates were incubated for 16-20 hours at 37° C. then the Minimal Inhibitory Concentration (MIC) of the test compound is determined visually. Values for concentration required to inhibit growth of […] (MIC50) and 90% (MIC90) of isolates were determined.

[2] = test system: S. aureus USA 300; test: broth microdilution MIC assay, S. aureus USA300; settings: Staphylococcus aureus; S. aureus USA300 (MRSA); read-out: MIC, S. aureus USA300
Method in brief: (§2)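 CLSI microdilution; MH broth + divalent cations; 5×10^5 CFU/mL; 2-fold series; 37° C, 16-20 h; visual MIC.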

[3] = test system: S. aureus ATCC 33591 (methicillin-resistant); test: broth microdilution MIC assay, S. aureus 33591; settings: Staphylococcus aureus, ATCC33591; S. aureus 33591, methicillin-resistant; read-out: MIC, S. aureus 33591
Method in brief: as §2

[4] = test system: P. aeruginosa ATCC 27853 (wild-type/QC strain); test: broth microdilution MIC assay, P. aeruginosa 27853; settings: Pseudomonas aeruginosa, ATCC27853; read-out: MIC, P. aeruginosa 27853
Method in brief: as §2

[5] = test system: P. aeruginosa ΔmexAB-OprM (an efflux pump knockout); test: broth microdilution MIC assay, P. aeruginosa ΔmexAB-OprM; settings: Pseudomonas aeruginosa, read-out: MIC, P. aeruginosa ΔmexAB-OprM
Method in brief: as §2

[6] = test system: S. aureus USA 600; test: broth microdilution MIC assay, S. aureus USA600; settings: Staphylococcus aureus; S. aureus USA600 (MRSA); read-out: MIC, S. aureus USA600
Method in brief: as §2

[7] = test system: P. aeruginosa clinical isolates; test: expanded MIC profiling, P. aeruginosa clinical isolates; settings: Pseudomonas aeruginosa
Description: as §1

[8] = test system: P. aeruginosa Paeβ-17; test: broth microdilution MIC assay, P. aeruginosa Paeβ-17; settings: Pseudomonas aeruginosa, read-out: MIC, P. aeruginosa Paeβ-17
Method in brief: as §2

[9] = test system: P. aeruginosa 35151 (hyper-permeable strain); test: broth microdilution MIC assay, P. aeruginosa 35151; settings: Pseudomonas aeruginosa, read-out: MIC, P. aeruginosa 35151
Method in brief: as §2

[10] = panel of S. aureus (MRSA) isolates of Table 5
[11] = panel of 20 P. aeruginosa clinical isolates

With C[C@@H](O)[C@H]1C(=O)N2C(C(=O)O)=C(S[C@@H]3CCN(C[C@H]4CC[C@H](NC(=N)N)CC4)C3)[C@H](C)[C@H]12 [Example 28, (4R,5S,6S)-3-(((R)-1-(((1R,4R)-4-guanidinocyclohexyl)methyl)pyrrolidin-3-yl)thio)-6-((R)-1-hydroxyethyl)-4-methyl-7-oxo-1-azabicyclo[3.2.0]hept-2-ene-2-carboxylic acid] the MIC ([1]; ATCC 33591 / MRSA, S. aureus ATCC-33591) was 2 µg/mL, the MIC ([1]; MRSA, S. aureus clinical isolate LH-SA3) was 0.5 µg/mL and the MIC ([1]; MRSA, S. aureus clinical isolate LH-SA9) was 0.5 µg/mL. It also gave an MIC ([1]; MRSA, S. aureus clinical isolate LH-SA23) of 0.5 µg/mL, an MIC ([1]; MRSA, S. aureus clinical isolate LH-SA24) of 0.5 µg/mL and an MIC ([1]; MRSA, S. aureus clinical isolate LH-SA26) of 0.5 µg/mL. It also gave an MIC ([1]; MRSA, S. aureus clinical isolate LH-SA29) of 2 µg/mL, an MIC ([1]; MRSA, S. aureus clinical isolate LH-SA33) of 2 µg/mL and an MIC ([1]; MRSA, S. aureus clinical isolate LH-SA34) of 4 µg/mL. For the same compound, the MIC ([1]; MRSA, S. aureus clinical isolate LH-SA37) was 0.25 µg/mL, the MIC ([1]; MRSA, S. aureus clinical isolate LH-SA38) was 4 µg/mL and the MIC ([1]; MRSA, S. aureus clinical isolate LH-SA39) was 2 µg/mL. For the same compound, the MIC ([1]; MRSA, S. aureus clinical isolate LH-SA40) was 2 µg/mL, the MIC ([1]; MRSA, S. aureus clinical isolate LH-SA41) was 2 µg/mL and the MIC ([1]; MRSA, S. aureus clinical isolate LH-SA42) was 0.5 µg/mL. For the same compound, the MIC ([1]; MRSA, S. aureus clinical isolate LH-SA44) was 4 µg/mL, the MIC ([1]; MRSA, S. aureus clinical isolate LH-SA45) was 16 µg/mL and the MIC ([1]; MRSA, S. aureus clinical isolate LH-SA48) was 0.5 µg/mL. It also gave an MIC ([1]; MRSA, S. aureus clinical isolate LH-SA49) of 0.5 µg/mL, an MIC ([1]; MRSA, S. aureus clinical isolate LH-SA50) of 0.5 µg/mL and an MIC50 [1, 10] of 0.5 µg/mL. For the same compound, the MIC90 [1, 10] was 4 µg/mL, the MIC [2] was 1 to 4 µg/mL (≈ 2.15 to 8.59 µM) and the MIC [3] was 1 to 4 µg/mL (≈ 2.15 to 8.59 µM). For the same compound, the MIC [4] was 1 to 4 µg/mL (≈ 2.15 to 8.59 µM), the MIC [5] was less than 1 µg/mL and the MIC [6] was less than 1 µg/mL. The MIC ([7]; P. aeruginosa clinical isolate Lankenau 11) was 2 µg/mL, the MIC ([7]; P. aeruginosa clinical isolate Lankenau 12) was 0.5 µg/mL and the MIC ([7]; P. aeruginosa clinical isolate Lankenau 13) was 0.5 µg/mL. It also gave an MIC ([7]; P. aeruginosa clinical isolate Lankenau 14) of 1 µg/mL, an MIC ([7]; P. aeruginosa clinical isolate Lankenau 15) of 1 µg/mL and an MIC ([7]; P. aeruginosa clinical isolate Lankenau 16) of 1 µg/mL. It also gave an MIC ([7]; P. aeruginosa clinical isolate Lankenau 17) of 1 µg/mL, an MIC ([7]; P. aeruginosa clinical isolate Lankenau 18) of 1 µg/mL and an MIC ([7]; P. aeruginosa clinical isolate Lankenau 19) of 1 µg/mL. For the same compound, the MIC ([7]; P. aeruginosa clinical isolate Lankenau 20) was 1 µg/mL, the MIC ([7]; P. aeruginosa clinical isolate Lankenau 21) was 1 µg/mL and the MIC ([7]; P. aeruginosa clinical isolate Lankenau 22) was 1 µg/mL. The MIC ([7]; P. aeruginosa clinical isolate Lankenau 23) was 2 µg/mL, the MIC ([7]; P. aeruginosa clinical isolate Lankenau 24) was 2 µg/mL and the MIC ([7]; P. aeruginosa clinical isolate Lankenau 25) was 2 µg/mL. It also gave an MIC ([7]; P. aeruginosa clinical isolate Lankenau 26) of 2 µg/mL, an MIC ([7]; P. aeruginosa clinical isolate Lankenau 27) of 2 µg/mL and an MIC ([7]; P. aeruginosa clinical isolate Lankenau 28) of 8 µg/mL. For the same compound, the MIC ([7]; P. aeruginosa clinical isolate Lankenau 29) was 16 µg/mL, the MIC ([7]; P. aeruginosa clinical isolate Lankenau 30) was 32 µg/mL and the MIC50 [7, 11] was 1 µg/mL. For the same compound, the MIC90 [7, 11] was 8 µg/mL, the MIC [8] was 8 to 32 µg/mL (≈ 17.2 to 68.7 µM) and the MIC [9] was less than 1 µg/mL.

— US20230127944A1, “BROAD-SPECTRUM CARBAPENEMS” (priority 2019, published 2023)
